# The source made the active and inactive calls. The calls are words filed in the database; no cut-off is given here.
# Key:
# [1] = tested on: Escherichia coli; assay: Antibacterial activity against Escherichia coli ATCC 35218 at 160 uM/ml after 24 hrs by kirby-bauer method; format: functional; details: ATCC 35218, 24 h, read-out: IZ
# [2] = tested on: Escherichia coli; assay: Antibacterial activity against Escherichia coli ATCC 35218 at 80 uM/ml after 24 hrs by kirby-bauer method; format: functional; details: ATCC 35218, 24 h, read-out: IZ
# [3] = tested on: Escherichia coli; assay: Antibacterial activity against Escherichia coli ATCC 35218 at 40 uM/ml after 24 hrs by kirby-bauer method; format: functional; details: ATCC 35218, 24 h, read-out: IZ
# [4] = tested on: Escherichia coli; assay: Antibacterial activity against Escherichia coli ATCC 35218 at 20 uM/ml after 24 hrs by kirby-bauer method; format: functional
# [5] = tested on: Burkholderia pseudomallei; assay: Antibacterial activity against Burkholderia pseudomallei NTCC 10274 at 160 uM/ml after 24 hrs by kirby-bauer method; format: functional; details: NTCC 10274, 24 h, read-out: IZ
# [6] = tested on: Burkholderia pseudomallei; assay: Antibacterial activity against Burkholderia pseudomallei NTCC 10274 at 80 uM/ml after 24 hrs by kirby-bauer method; format: functional; details: NTCC 10274, 24 h, read-out: IZ
# [7] = tested on: Burkholderia pseudomallei; assay: Antibacterial activity against Burkholderia pseudomallei NTCC 10274 at 40 uM/ml after 24 hrs by kirby-bauer method; format: functional; details: NTCC 10274, 24 h, read-out: IZ
# [8] = tested on: Burkholderia pseudomallei; assay: Antibacterial activity against Burkholderia pseudomallei NTCC 10274 at 20 uM/ml after 24 hrs by kirby-bauer method; format: functional
# [9] = tested on: Pseudomonas aeruginosa; assay: Antibacterial activity against Pseudomonas aeruginosa ATCC 15499 at 160 uM/ml after 24 hrs by kirby-bauer method; format: functional
# [10] = tested on: Pseudomonas aeruginosa; assay: Antibacterial activity against Pseudomonas aeruginosa ATCC 15499 at 80 uM/ml after 24 hrs by kirby-bauer method; format: functional; details: ATCC 15499, 24 h, read-out: IZ
# [11] = tested on: Pseudomonas aeruginosa; assay: Antibacterial activity against Pseudomonas aeruginosa ATCC 15499 at 40 uM/ml after 24 hrs by kirby-bauer method; format: functional; details: ATCC 15499, 24 h, read-out: IZ
# [12] = tested on: Pseudomonas aeruginosa; assay: Antibacterial activity against Pseudomonas aeruginosa ATCC 15499 at 20 uM/ml after 24 hrs by kirby-bauer method; format: functional
# [13] = tested on: Salmonella typhimurium; assay: Antibacterial activity against Salmonella typhimurium ATCC 23564 at 160 uM/ml after 24 hrs by kirby-bauer method; format: functional, Salmonella enterica subsp. enterica serovar Typhimurium; details: Salmonella enterica, ATCC 23564, 24 h; read-out: IZ
# [14] = tested on: Salmonella typhimurium; assay: Antibacterial activity against Salmonella typhimurium ATCC 23564 at 80 uM/ml after 24 hrs by kirby-bauer method; format: functional, Salmonella enterica subsp. enterica serovar Typhimurium; details: Salmonella enterica, ATCC 23564, 24 h; read-out: IZ
# [15] = tested on: Salmonella typhimurium; assay: Antibacterial activity against Salmonella typhimurium ATCC 23564 at 40 uM/ml after 24 hrs by kirby-bauer method; format: functional, Salmonella enterica subsp. enterica serovar Typhimurium; details: Salmonella enterica, ATCC 23564, 24 h; read-out: IZ
# [16] = tested on: Salmonella typhimurium; assay: Antibacterial activity against Salmonella typhimurium ATCC 23564 at 20 uM/ml after 24 hrs by kirby-bauer method; format: functional
# [17] = tested on: Staphylococcus aureus; assay: Antibacterial activity against Staphylococcus aureus ATCC 11632 at 160 uM/ml after 24 hrs by kirby-bauer method; format: functional; details: ATCC 11632, 24 h, read-out: IZ
# [18] = tested on: Staphylococcus aureus; assay: Antibacterial activity against Staphylococcus aureus ATCC 11632 at 80 uM/ml after 24 hrs by kirby-bauer method; format: functional; details: ATCC 11632, 24 h, read-out: IZ
# [19] = tested on: Staphylococcus aureus; assay: Antibacterial activity against Staphylococcus aureus ATCC 11632 at 40 uM/ml after 24 hrs by kirby-bauer method; format: functional
# [20] = tested on: Staphylococcus aureus; assay: Antibacterial activity against Staphylococcus aureus ATCC 11632 at 20 uM/ml after 24 hrs by kirby-bauer method; format: functional
# [21] = tested on: Aspergillus niger; assay: Antifungal activity against Aspergillus niger MTCC 1108 at 160 uM/ml after 48 hrs by paper disc diffusion method; format: functional; details: MTCC 1108, 48 h, read-out: IZ
# [22] = tested on: Aspergillus niger; assay: Antifungal activity against Aspergillus niger MTCC 1108 at 80 uM/ml after 48 hrs by paper disc diffusion method; format: functional; details: MTCC 1108, 48 h, read-out: IZ
# [23] = tested on: Aspergillus niger; assay: Antifungal activity against Aspergillus niger MTCC 1108 at 40 uM/ml after 48 hrs by paper disc diffusion method; format: functional
# [24] = tested on: Aspergillus niger; assay: Antifungal activity against Aspergillus niger MTCC 1108 at 20 uM/ml after 48 hrs by paper disc diffusion method; format: functional
# [25] = tested on: Aspergillus flavus; assay: Antifungal activity against Aspergillus flavus MTCC 1021 at 160 uM/ml after 48 hrs by paper disc diffusion method; format: functional; details: MTCC 1021, 48 h, read-out: IZ
# [26] = tested on: Aspergillus flavus; assay: Antifungal activity against Aspergillus flavus MTCC 1021 at 80 uM/ml after 48 hrs by paper disc diffusion method; format: functional
# [27] = tested on: Aspergillus flavus; assay: Antifungal activity against Aspergillus flavus MTCC 1021 at 40 uM/ml after 48 hrs by paper disc diffusion method; format: functional
# [28] = tested on: Aspergillus flavus; assay: Antifungal activity against Aspergillus flavus MTCC 1021 at 20 uM/ml after 48 hrs by paper disc diffusion method; format: functional
# [29] = tested on: Curvularia lunata; assay: Antifungal activity against Curvularia lunata MTCC 581 at 160 uM/ml after 48 hrs by paper disc diffusion method; format: functional; details: MTCC 581, 48 h, read-out: IZ
# [30] = tested on: Curvularia lunata; assay: Antifungal activity against Curvularia lunata MTCC 581 at 80 uM/ml after 48 hrs by paper disc diffusion method; format: functional; details: MTCC 581, 48 h, read-out: IZ
# [31] = tested on: Curvularia lunata; assay: Antifungal activity against Curvularia lunata MTCC 581 at 40 uM/ml after 48 hrs by paper disc diffusion method; format: functional; details: MTCC 581, 48 h, read-out: IZ
# [32] = tested on: Curvularia lunata; assay: Antifungal activity against Curvularia lunata MTCC 581 at 20 uM/ml after 48 hrs by paper disc diffusion method; format: functional; details: MTCC 581, 48 h, read-out: IZ
# [33] = tested on: Trichoderma viride; assay: Antifungal activity against Trichoderma viride MTCC 1107 at 160 uM/ml after 48 hrs by paper disc diffusion method; format: functional; details: MTCC 1107, 48 h, read-out: IZ
# [34] = tested on: Trichoderma viride; assay: Antifungal activity against Trichoderma viride MTCC 1107 at 80 uM/ml after 48 hrs by paper disc diffusion method; format: functional; details: MTCC 1107, 48 h, read-out: IZ
# [35] = tested on: Trichoderma viride; assay: Antifungal activity against Trichoderma viride MTCC 1107 at 40 uM/ml after 48 hrs by paper disc diffusion method; format: functional; details: MTCC 1107, 48 h, read-out: IZ
# [36] = tested on: Trichoderma viride; assay: Antifungal activity against Trichoderma viride MTCC 1107 at 20 uM/ml after 48 hrs by paper disc diffusion method; format: functional
# [37] = tested on: QG-56; assay: Cytotoxicity against human QG56 cells after 48 hrs by MTT assay; format: functional, cell-based
# [38] = tested on: HepG2
# [39] = tested on: HCT-116
SMILES,zone of inhibition at 160 µM [1],zone of inhibition at 80 µM [2],zone of inhibition at 40 µM [3],inhibition zone (IZ) [4],zone of inhibition at 160 µM [5],zone of inhibition at 80 µM [6],zone of inhibition at 40 µM [7],zone of inhibition at 160 µM [13],zone of inhibition at 80 µM [14],zone of inhibition at 40 µM [15],zone of inhibition at 160 µM [17],zone of inhibition at 80 µM [18],zone of inhibition at 160 µM [21],zone of inhibition at 80 µM [22],zone of inhibition at 160 µM [25],inhibition zone (IZ) [26],inhibition zone (IZ) [27],inhibition zone (IZ) [28],zone of inhibition at 160 µM [29],zone of inhibition at 80 µM [30],also measured
COc1cc(/C=C/C(=O)C2=C(/C=C/c3ccc(O)c(OC)c3)NC(=S)NC2c2ccc(O)c(OC)c2)ccc1O (stereo not given),14 mm,11 mm,9 mm,inactive,21 mm,18 mm,16 mm,14 mm,12 mm,9 mm,11 mm,9 mm,16 mm,12 mm,11 mm,inactive,inactive,inactive,24 mm,22 mm,"zone of inhibition at 20 µM ([8]; NTCC 10274, 24 h, read-out: IZ): 13 mm; zone of inhibition at 160 µM ([9]; ATCC 15499, 24 h, read-out: IZ): 14 mm; zone of inhibition at 80 µM [10]: 11 mm; zone of inhibition at 40 µM [11]: 9 mm; inhibition zone (IZ) [12]: inactive; inhibition zone (IZ) ([16]; Salmonella enterica subsp. enterica serovar Typhimurium): inactive; inhibition zone (IZ) [19]: inactive; inhibition zone (IZ) [20]: inactive; zone of inhibition at 40 µM ([23]; MTCC 1108, 48 h, read-out: IZ): 11 mm; zone of inhibition at 20 µM ([24]; MTCC 1108, 48 h, read-out: IZ): 9 mm; zone of inhibition at 40 µM [31]: 21 mm; zone of inhibition at 20 µM [32]: 19 mm; zone of inhibition at 160 µM [33]: 13 mm; zone of inhibition at 80 µM [34]: 11 mm; zone of inhibition [35]: 9 mm; inhibition zone (IZ) [36]: inactive; IC50 [37]: 100 uM/ml; IC50 [38]: 50 uM/ml; IC50 [39]: 100 uM/ml"
COc1cc(/C=C/C(=O)C2=C(/C=C/c3ccc(O)c(OC)c3)NC(=S)NC2c2ccc(Cl)cc2)ccc1O (stereo not given),19 mm,15 mm,9 mm,inactive,16 mm,12 mm,9 mm,22 mm,19 mm,17 mm,16 mm,13 mm,11 mm,9 mm,9 mm,inactive,inactive,inactive,15 mm,13 mm,"inhibition zone (IZ) [8]: inactive; inhibition zone (IZ) [9]: inactive; zone of inhibition at 20 µM ([16]; Salmonella enterica, ATCC 23564, 24 h, read-out: IZ): 13 mm; zone of inhibition at 40 µM ([19]; ATCC 11632, 24 h, read-out: IZ): 11 mm; zone of inhibition at 20 µM ([20]; ATCC 11632, 24 h, read-out: IZ): 9 mm; inhibition zone (IZ) [23]: inactive; inhibition zone (IZ) [24]: inactive; zone of inhibition at 40 µM [31]: 12 mm; zone of inhibition at 20 µM [32]: 9 mm; zone of inhibition at 160 µM [33]: 24 mm; zone of inhibition at 80 µM [34]: 22 mm; zone of inhibition [35]: 19 mm; zone of inhibition at 20 µM ([36]; MTCC 1107, 48 h, read-out: IZ): 18 mm; IC50 [37]: 100 uM/ml; IC50 [38]: 100 uM/ml; IC50 [39]: 50 uM/ml"
